# Laboratory results as given in US7416744B2, “Extracts, compounds and pharmaceutical compositions having anti-diabetic activity and their use” (priority 2000, dated 2008).
# Experiments:
# male ZDF rats [1] = assay: Acute study: single oral dose, dose-response, food intake; format: in vivo, rat
# Description: (§1) The animals used for this study were 30 male ZDF rats and 6 male lean ZDF rats obtained from Gmi (Indianapolis, Ind., USA). The rats arrived at 6 weeks of age. The acute study was undertaken when the rats were 7 weeks old and the chronic study started when the rats were 9 weeks old.
# This was a single dose, dose-response study in ZDF rats. The 30 ZDF rats were allocated to one of 5 groups so that there were 6 rats in each group. In addition there were 6 untreated lean ZDF rats. All of the rats were housed individually. The acute dose of the compound as given by oral gavage at 9.30 AM. Control ZDF and lean rats received water. Food intake was measured over the periods 9.30-16.00 (daytime) and 16.00-9.30 (night-time) for 48 hours.
# Six days prior to the single dose administration the rats were allocated to individual cages and were provided with food and water ad libitum. Four days prior to dose administration, 50 g of food was placed in each cage. Then two days prior to dose administration at ca 9.30 and 16.00 hours the food remaining was weighed and replaced with a further 50 g.
# Acute Study—The compound (1) was made up in water. Animals were administered with a single oral dose of The compound (1) at the appropriate rate. Control animals received water alone at the rate of 1 ml/kg. The compound (1) was administered at ca 9.30 AM.
# (§2) Daily food and water intake of each rat was measured by weight. Any spilled food was also collected and weighed so that an accurate estimate of food consumption could be made.
# male ZDF rats [2] = assay: Chronic study: daily oral dosing, food intake (incl. regression after withdrawal); format: in vivo, rat
# Description: as §1
# (§3) After a wash-out of 9 days after the acute dose, the rats were retained in the same treatment groups for the chronic study. […] For the pair-feeding, rats were individually matched. Pair-fed rats together with controls were dosed with water daily. Rats were dosed daily at ca 9.30 AM. The initial doses were 120 mg/kg (high dose) and 60 mg/kg (low dose).
# (§4) Food and water intake were measured daily. Bodyweights were measured twice weekly. Blood samples were taken for determination of glucose, insulin and leptin. Oral glucose tolerance was also measured.
# (§5) Chronic Study—The compound (1) was made up in water. Animals were dosed at the appropriate rate daily by oral gavage. Control animals received water alone at the rate of 1 ml/kg. Doses were administered at ca 10 AM each day for a total of 30 days.
# (§6) On Day 7 of the dosing procedure the dose levels of groups B & D were reduced to 60 mg/kg and 30 mg/kg due to concerns over that food intake suppression might be too great. The dosing procedure remained the same and animals were dosed for a further 23 days (30 days dosing in total).
# as §2
# (§7) In order to determine the potential long-term effects of The compound (1), the measurement of food and water intake were continued following withdrawal of treatment.
# male ZDF rats [3] = assay: Chronic study: water intake; format: in vivo, rat
# Experimental: as §3, §4, §5, §6, §2, §7
# male ZDF rats [4] = assay: Chronic study: bodyweight; format: in vivo, rat
# Experimental: as §3, §4, §5, §6
# The bodyweight of each rat was measured twice weekly throughout the course of the study.
# male ZDF rats [5] = assay: Chronic study: blood glucose concentration in fed rats; format: in vivo, rat
# Experimental: as §3, §5, §6
# (§8) For measurement of blood glucose levels, a 20 μl sample of blood was taken from the tail vein whilst animals were in a fed state. A further 100 μl sample of blood was taken and the plasma separated by centrifugation (5000 rpm, 5 minutes). Plasma samples were then analysed for insulin and leptin using rat insulin or leptin ELISA kits (Crystal Chem Inc, PO Box 60225, Chicago, Ill. 60660, USA). Blood glucose, insulin and leptin levels were determined at approximately weekly intervals.
# male ZDF rats [6] = assay: Chronic study: blood glucose concentration in fasted rats; format: in vivo, rat; conditions: 5 h fast
# Experimental: as §3, §5, §6, §8
# Fasted glucose, insulin and leptin levels were determined in an identical manner but animals were fasted for 5 hours prior to samples being taken.
# male ZDF rats [7] = assay: Chronic study: oral glucose tolerance test (OGTT); format: in vivo, rat; conditions: day 9, oral 2 g/kg glucose load
# Experimental: Oral glucose tolerance was measured at 9 days following treatment (chronic study). Animals were fasted for 5 hours prior to the start of the OGTT. Animals were treated with glucose diluted in water at a rate of 2 g/kg ([…]). Blood samples were taken at 0, 30, 60 90 and 120 minutes. Glucose concentrations were determined by mixing blood samples with 0.38 ml of haemolysis reagent. A duplicate 20 μl aliquots of this mixture was taken for each individual sample and placed in an assay tray. To each well was added 180 μl aliquots of Trinders glucose reagent. The samples were mixed and then left for approximately 30 minutes. Samples were then analysed automatically using a SpectraMax 250 and SoftMax Pro software (Molecular devices Corporation, 1311 Orleans Drive, Sunnyvale, Calif. 94089, USA). The results were converted into glucose concentration values using Prism software, version 3.0 (GraphPad Software Inc, San Diego, Calif. USA)
# The OGTT was repeated after 30 days treatment. The procedure was identical except that the pair-fed rats were each given 6 g of food at 7 AM with food being withdrawn at 9 AM for 5 hours.
# Blood samples for insulin were obtained at 30 minutes prior to and 60 minutes post glucose load.
# Oral glucose tolerance was determined after 8 days and after 29 days of treatment, i.e. on day 9 and day 30. Rats were fasted for 5 hours prior to receiving an oral 2 g/kg glucose load.
# normal rats = conditions: administered orally; previously shown; cited from earlier work
# [8] = 120 mg/kg and 60 mg/kg daily oral
smiles,measurement,setting,value
"C/C=C(\C)C(=O)O[C@@H]1CC2C(CC=C3C[C@@H](OC4CC(OC)C(OC5CC(OC)C(OC6OC(C)C(O)C(OC)C6O)C(C)O5)C(C)O4)CC[C@@]32C)[C@@]2(O)CC[C@H](C(C)=O)[C@@]12C (stereo partly drawn) [compound (1), 3-0-[-β-D-thevetopyranosyl-(1-4)-β-D-cymaropyranosyl-(1-4)-β-D-cymaropyranosyl]-12β-0-tigloyloxy-14-hydroxy-14β-pregn-50-en-20-one]",food intake for the period 24-48 hours past a single oral dose,"male ZDF rats [1]; 20-160 mg/kg, daytime and night-time",reduced (both daytime and night-time) in a dose-related manner
same,food intake in the second day (significance),male ZDF rats [1]; single oral dose 80 mg/kg,significant
same,food intake in the second day (significance),male ZDF rats [1]; single oral dose 160 mg/kg,significant
same,night-time food intake compared with lean rats,male ZDF rats [1]; single oral dose 160 mg/kg,the same as the lean rats
same,food intake in the first 24 hours (significance),male ZDF rats [1]; single oral dose 160 mg/kg (only dose significant),Significant reduction
same,onset of effect on food intake,male ZDF rats [1]; single oral dose given at 09.30,slow in onset
same,daytime food intake over the 7 hour period post-dosing,"male ZDF rats [1]; single oral dose, dose range 20-160 mg/kg",no significant effect
same,night-time food intake,"male ZDF rats [1]; single oral dose, dose range 20-160 mg/kg, first night",dose-related reduction
same,duration of response to a single dose,"male ZDF rats [1]; single oral dose, effects seen during second day",long
same,daytime food intake over the first 7 days,male ZDF rats [2]; [8],increasing effect
same,time until full effect on night-time food intake apparent,male ZDF rats [2]; [8],2 days
same,"appetite suppression, overall conclusion",male ZDF rats [2]; ZDF male rats,powerful appetite suppressant
same,effectiveness on food intake reduction over the period 7-14 days,male ZDF rats [2]; after dose reduction to 60 and 30 mg/kg,small reduction in the effectiveness
same,rebound hyperphagia on withdrawal of the drug,male ZDF rats [2]; after end of chronic dosing,did not lead to a rebound hyperphagia
same,reduction in food intake after 7 days,male ZDF rats [2]; both dose levels (120 and 60 mg/kg daily oral),around 50%
same,food intake after 14 days,"male ZDF rats [2]; both groups, 60 and 30 mg/kg",stabilised
same,pharmacological tolerance to food intake reduction,male ZDF rats [2]; chronic dosing,no indication of tolerance
same,food intake over the treatment period,"male ZDF rats [2]; chronic dosing, overall",marked reduction
same,"food intake after withdrawal of drug treatment, relative to control ZDF rats",male ZDF rats [2]; monitored for a further 17 days after withdrawal,only a small loss of efficacy
same,water intake after withdrawal of the treatment,"male ZDF rats [3]; after 30 days treatment, previously treated rats",rose slightly
same,time after withdrawal before blood glucose concentration and water intake approached that of the diabetic controls,male ZDF rats [3]; after end of chronic dosing,approximately 2 weeks
same,diabetic state by water intake after 66 days,"male ZDF rats [3]; after withdrawal, versus untreated controls",not as diabetic as the untreated controls
same,time for water intake to be reduced to the level in the lean controls,"male ZDF rats [3]; high dose (120 or 60 mg/kg/day) or low dose (60 or 30 mg/kg/day), maintained throughout dosing",≤ 4 days
same,growth rate after 14 days,male ZDF rats [4]; chronic dosing,higher growth rate than the control ZDF rats
same,growth rate over the first 3 weeks of treatment relative to ZDF controls,"male ZDF rats [4]; chronic dosing, both doses",dose-related decrease in the growth rate
same,bodyweight plateau level,"male ZDF rats [4]; chronic study, ZDF controls plateaued at 360-370 g",more than 400 g
same,bodyweight by the end of the treatment period versus ZDF controls,male ZDF rats [4]; high dose (120 then 60 mg/kg),the same weight
same,bodyweight by the end of the treatment period versus ZDF controls,male ZDF rats [4]; low dose (60 then 30 mg/kg),heavier than the controls
same,body weight about 2 weeks after withdrawal versus ZDF controls,male ZDF rats [4]; previously treated rats,significantly greater
same,"treatment of established diabetes, overall conclusion",male ZDF rats [5]; ZDF male rats,effective treatment
same,blood glucose concentration in fed rats,male ZDF rats [5]; after 7 days of treatment,reduction in the blood glucose concentration from the diabetic level to a similar concentration as in lean littermates
same,blood glucose concentration in fed rats after withdrawal of therapy,male ZDF rats [5]; after withdrawal,steadily increased
same,"glycaemic status (plasma glucose, glucose tolerance, water intake)","male ZDF rats [5]; chronic study, overall",substantial improvements in glycaemic status
same,glycaemia in fed rats during therapy,male ZDF rats [5]; until withdrawal of therapy,Normal glycaemia was maintained
same,fasted blood glucose concentration versus ZDF controls,male ZDF rats [6]; after 8 days treatment,significantly lower
same,fasted blood glucose concentration versus lean rats,male ZDF rats [6]; after 8 days treatment,did not differ significantly
same,fasted blood glucose concentration versus ZDF controls,male ZDF rats [6]; after 29 days treatment,significantly lower
same,fasted blood glucose concentration versus lean rats,male ZDF rats [6]; after 29 days treatment,did not differ significantly
same,oral glucose tolerance,male ZDF rats [7],only marginally impaired relative to lean
same,food intake in normal rats,normal rats,reduce food intake
